Assay results published in patent US9796711B2, “Substituted pyrazolo[3,4-b]pyridin-6-carboxylic acids and method of use” (AbbVie S.àr.l., priority 2015, dated 2017).

Target: T1, ΔF508-CFTR (Homo sapiens, UniProt P13569, DEL508-508)
T1 construct: host or cells: CFBE41o-, doxycycline-inducible
Assay: CFTR cell surface levels using HRP-tagged ΔF508-CFTR expressing CFBE cells, in the presence of a co-corrector
Format: cell-based
Settings: HRP-tagged ΔF508-CFTR expressing CFBE cells, in the presence of 3 μM co-corrector; for EC50: read-out: EC50
Summary of the method: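 Cells were seeded with 0.5 μg/mL doxycycline and held 68 h at 37 °C. Test compounds plus 3 μM co-corrector (final 0.1% DMSO) were then added for 20 h at 33 °C. Washed cells received HRP substrate, and luminescence was normalized between DMSO and 3 μM co-corrector controls.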

T1 sequence (P13569 with tags, fused parts or gaps DEL508-508): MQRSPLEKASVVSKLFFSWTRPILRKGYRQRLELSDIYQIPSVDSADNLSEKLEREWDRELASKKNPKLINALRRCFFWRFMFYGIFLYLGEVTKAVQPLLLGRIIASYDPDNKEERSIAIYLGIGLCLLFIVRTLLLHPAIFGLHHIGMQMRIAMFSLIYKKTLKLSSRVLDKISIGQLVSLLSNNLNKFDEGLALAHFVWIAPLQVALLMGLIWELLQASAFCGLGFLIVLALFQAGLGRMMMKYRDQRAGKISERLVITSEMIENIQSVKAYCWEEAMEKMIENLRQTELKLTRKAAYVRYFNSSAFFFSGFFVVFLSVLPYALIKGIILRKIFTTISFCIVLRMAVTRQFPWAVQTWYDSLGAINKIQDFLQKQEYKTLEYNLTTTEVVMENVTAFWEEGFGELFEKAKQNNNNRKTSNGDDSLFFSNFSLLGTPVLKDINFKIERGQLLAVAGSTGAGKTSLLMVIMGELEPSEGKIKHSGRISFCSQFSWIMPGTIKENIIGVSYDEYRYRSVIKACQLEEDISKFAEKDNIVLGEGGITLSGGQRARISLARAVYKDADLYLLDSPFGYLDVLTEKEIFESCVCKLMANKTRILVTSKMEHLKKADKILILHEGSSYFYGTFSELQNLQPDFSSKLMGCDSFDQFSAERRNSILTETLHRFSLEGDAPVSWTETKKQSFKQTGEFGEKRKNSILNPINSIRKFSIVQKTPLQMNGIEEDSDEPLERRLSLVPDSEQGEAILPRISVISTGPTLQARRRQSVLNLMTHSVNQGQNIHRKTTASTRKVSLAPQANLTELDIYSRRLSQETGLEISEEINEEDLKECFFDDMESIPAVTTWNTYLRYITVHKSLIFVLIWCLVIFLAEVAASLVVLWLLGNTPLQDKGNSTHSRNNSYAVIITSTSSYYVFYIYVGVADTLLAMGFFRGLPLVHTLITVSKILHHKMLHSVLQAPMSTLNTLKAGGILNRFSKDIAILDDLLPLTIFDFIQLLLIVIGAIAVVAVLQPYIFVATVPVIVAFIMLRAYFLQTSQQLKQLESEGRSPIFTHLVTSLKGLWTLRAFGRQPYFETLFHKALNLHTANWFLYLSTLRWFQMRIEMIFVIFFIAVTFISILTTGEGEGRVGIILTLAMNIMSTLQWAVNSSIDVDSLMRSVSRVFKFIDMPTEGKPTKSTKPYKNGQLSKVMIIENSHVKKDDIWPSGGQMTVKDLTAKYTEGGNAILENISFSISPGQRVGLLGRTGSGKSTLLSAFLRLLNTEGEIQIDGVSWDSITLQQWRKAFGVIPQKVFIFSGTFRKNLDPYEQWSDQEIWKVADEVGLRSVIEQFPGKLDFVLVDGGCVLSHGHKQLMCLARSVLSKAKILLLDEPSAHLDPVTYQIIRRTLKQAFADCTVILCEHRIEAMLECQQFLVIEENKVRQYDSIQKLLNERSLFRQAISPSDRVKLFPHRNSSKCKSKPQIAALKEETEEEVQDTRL

SMILES	% Activation	EC50
CCN(CC)CCCC1CCN(c2cc(C(=O)O)nc3c2c(C2CCC2)nn3-c2ccccc2)CC1 [compound 731, 3-cyclobutyl-4-{4-[3-(diethylamino)propyl]piperidin-1-yl}-1-phenyl-1H-pyrazolo[3,4-b]pyridine-6-carboxylic acid]	399.5%	94.5 nM
O=C(O)c1cc(N2CCC(CCCN3CCCCC3)CC2)c2c(C3CCC3)nn(-c3ccccc3)c2n1 [compound 732, 3-cyclobutyl-1-phenyl-4-{4-[3-(piperidin-1-yl)propyl]piperidin-1-yl}-1H-pyrazolo[3,4-b]pyridine-6-carboxylic acid]	409.6%	119 nM
O=C(O)c1cc(N2CCC(CCCN3CCCC3)CC2)c2c(C3CCC3)nn(-c3ccccc3)c2n1 [compound 733, 3-cyclobutyl-1-phenyl-4-{4-[3-(pyrrolidin-1-yl)propyl]piperidin-1-yl}-1H-pyrazolo[3,4-b]pyridine-6-carboxylic acid]	396.9%	85.1 nM
CCN(C1CCN(c2cc(C(=O)O)nc3c2c(C2CCC2)nn3-c2ccccc2)CC1)C1COC1 [compound 734, 3-cyclobutyl-4-{4-[ethyl(oxetan-3-yl)amino]piperidin-1-yl}-1-phenyl-1H-pyrazolo[3,4-b]pyridine-6-carboxylic acid]	415%	244 nM
CN(C1CCN(c2cc(C(=O)O)nc3c2c(C2CCC2)nn3-c2ccccc2)CC1)C1COC1 [compound 735, 3-cyclobutyl-4-{4-[methyl(oxetan-3-yl)amino]piperidin-1-yl}-1-phenyl-1H-pyrazolo[3,4-b]pyridine-6-carboxylic acid]	437.7%	224 nM
O=C(O)c1cc(N2CCC(C3CCN(C4COC4)CC3)CC2)c2c(C3CCC3)nn(-c3ccccc3)c2n1 [compound 736, 3-cyclobutyl-4-[1′-(oxetan-3-yl)[4,4′-bipiperidin]-1-yl]-1-phenyl-1H-pyrazolo[3,4-b]pyridine-6-carboxylic acid]	511.6%	42.2 nM
CN(C)C1CCN(c2cc(C(=O)O)nc3c2c(C2CCC2)nn3-c2ccccc2)CC1 [compound 737, 3-cyclobutyl-4-[4-(dimethylamino)piperidin-1-yl]-1-phenyl-1H-pyrazolo[3,4-b]pyridine-6-carboxylic acid]	343.3%	1670 nM
CN1CCN(C(=O)C2CCN(c3cc(C(=O)O)nc4c3c(C3CCC3)nn4-c3ccccc3)CC2)CC1 [compound 739, 3-cyclobutyl-4-[4-(4-methylpiperazine-1-carbonyl)piperidin-1-yl]-1-phenyl-1H-pyrazolo[3,4-b]pyridine-6-carboxylic acid]	327.2%	1670 nM
CC(C)c1nn(-c2ccc(F)cc2)c2nc(C(=O)O)cc(N3CC(C4CN(C)CCO4)C3)c12 (stereo not drawn) [compound 740, 1-(4-fluorophenyl)-4-[3-(4-methylmorpholin-2-yl)azetidin-1-yl]-3-(propan-2-yl)-1H-pyrazolo[3,4-b]pyridine-6-carboxylic acid]	194.7%	424 nM
CCOCCN1CCC(N2CCN(c3cc(C(=O)O)nc4c3c(C(C)C)nn4-c3ccc(F)cc3)CC2)CC1 [compound 741, 4-{4-[1-(2-ethoxyethyl)piperidin-4-yl]piperazin-1-yl}-1-(4-fluorophenyl)-3-(propan-2-yl)-1H-pyrazolo[3,4-b]pyridine-6-carboxylic acid]	303%	669 nM
CC(O)CN1CCC(N2CCN(c3cc(C(=O)O)nc4c3c(C(C)C)nn4-c3ccc(F)cc3)CC2)CC1 (stereo not drawn) [compound 742, 1-(4-fluorophenyl)-4-{4-[1-(2-hydroxypropyl)piperidin-4-yl]piperazin-1-yl}-3-(propan-2-yl)-1H-pyrazolo[3,4-b]pyridine-6-carboxylic acid]	126.1%	5000 nM
CC(C)c1nn(-c2ccc(F)cc2)c2nc(C(=O)O)cc(N3CCN(C4CCN(C5CC5)CC4)CC3)c12 [compound 743, 4-[4-(1-cyclopropylpiperidin-4-yl)piperazin-1-yl]-1-(4-fluorophenyl)-3-(propan-2-yl)-1H-pyrazolo[3,4-b]pyridine-6-carboxylic acid]	330.5%	1240 nM
CC(C)c1nn(-c2ccc(F)cc2)c2nc(C(=O)O)cc(N3CCC(N4CCN(C5COC5)CC4)CC3)c12 [compound 744, 1-(4-fluorophenyl)-4-{4-[4-(oxetan-3-yl)piperazin-1-yl]piperidin-1-yl}-3-(propan-2-yl)-1H-pyrazolo[3,4-b]pyridine-6-carboxylic acid]	337.3%	735 nM
COCCN1CCN(C2CCN(c3cc(C(=O)O)nc4c3c(C(C)C)nn4-c3ccc(F)cc3)CC2)CC1 [compound 746, 1-(4-fluorophenyl)-4-{4-[4-(2-methoxyethyl)piperazin-1-yl]piperidin-1-yl}-3-(propan-2-yl)-1H-pyrazolo[3,4-b]pyridine-6-carboxylic acid]	418.4%	549 nM
CCN(CC)CCCC1CCN(c2cc(C(=O)O)nc3c2c(C(C)C)nn3-c2ccc(F)cc2)CC1 [compound 747, 4-{4-[3-(diethylamino)propyl]piperidin-1-yl}-1-(4-fluorophenyl)-3-(propan-2-yl)-1H-pyrazolo[3,4-b]pyridine-6-carboxylic acid]	475.3%	1670 nM
CC(C)c1nn(-c2ccc(F)cc2)c2nc(C(=O)O)cc(N3CCC(CCCN4CCCC4)CC3)c12 [compound 749, 1-(4-fluorophenyl)-3-(propan-2-yl)-4-{4-[3-(pyrrolidin-1-yl)propyl]piperidin-1-yl}-1H-pyrazolo[3,4-b]pyridine-6-carboxylic acid]	387%	277 nM
CCN(C1CCN(c2cc(C(=O)O)nc3c2c(C(C)C)nn3-c2ccc(F)cc2)CC1)C1COC1 [compound 750, 4-{4-[ethyl(oxetan-3-yl)amino]piperidin-1-yl}-1-(4-fluorophenyl)-3-(propan-2-yl)-1H-pyrazolo[3,4-b]pyridine-6-carboxylic acid]	394.1%	503 nM
CC(C)c1nn(-c2ccc(F)cc2)c2nc(C(=O)O)cc(N3CCC(N(C)C4COC4)CC3)c12 [compound 751, 1-(4-fluorophenyl)-4-{4-[methyl(oxetan-3-yl)amino]piperidin-1-yl}-3-(propan-2-yl)-1H-pyrazolo[3,4-b]pyridine-6-carboxylic acid]	400.2%	1590 nM
CC(C)c1nn(-c2ccc(F)cc2)c2nc(C(=O)O)cc(N3CCC(C4CCN(C5COC5)CC4)CC3)c12 [compound 752, 1-(4-fluorophenyl)-4-[1′-(oxetan-3-yl)[4,4′-bipiperidin]-1-yl]-3-(propan-2-yl)-1H-pyrazolo[3,4-b]pyridine-6-carboxylic acid]	530.9%	104 nM
CC(C)c1nn(-c2ccc(F)cc2)c2nc(C(=O)O)cc(N3CCC(C(=O)N4CCN(C)CC4)CC3)c12 [compound 755, 1-(4-fluorophenyl)-4-[4-(4-methylpiperazine-1-carbonyl)piperidin-1-yl]-3-(propan-2-yl)-1H-pyrazolo[3,4-b]pyridine-6-carboxylic acid]	270.9%	1670 nM
CC(C)c1nn(-c2ccc(F)cc2)c2nc(C(=O)O)cc(N3CCC(N4CCOCC4)CC3)c12 [compound 756, 1-(4-fluorophenyl)-4-[4-(morpholin-4-yl)piperidin-1-yl]-3-(propan-2-yl)-1H-pyrazolo[3,4-b]pyridine-6-carboxylic acid]	446%	401 nM
CC(C)c1nn(-c2ccc(F)cc2)c2nc(C(=O)O)cc(N3CC(N4CCC(N(C)C5COC5)CC4)C3)c12 [compound 758, 1-(4-fluorophenyl)-4-(3-{4-[methyl(oxetan-3-yl)amino]piperidin-1-yl}azetidin-1-yl)-3-(propan-2-yl)-1H-pyrazolo[3,4-b]pyridine-6-carboxylic acid]	139.5%	812 nM
CC(C)c1nn(-c2ccc(F)cc2)c2nc(C(=O)O)cc(N3CC(N4CCC(N5CCOCC5)CC4)C3)c12 [compound 759, 1-(4-fluorophenyl)-4-{3-[4-(morpholin-4-yl)piperidin-1-yl]azetidin-1-yl}-3-(propan-2-yl)-1H-pyrazolo[3,4-b]pyridine-6-carboxylic acid]	207%	1670 nM
CC(C)c1nn(-c2ccc(F)cc2)c2nc(C(=O)O)cc(N3CCN(CCCN(C)C)CC3)c12 [compound 760, 4-{4-[3-(dimethylamino)propyl]piperazin-1-yl}-1-(4-fluorophenyl)-3-(propan-2-yl)-1H-pyrazolo[3,4-b]pyridine-6-carboxylic acid]	131.6%	5000 nM
CC(C)c1nn(-c2ccc(F)cc2)c2nc(C(=O)O)cc(N3CCC(C)(N4CCN(C)CC4)CC3)c12 [compound 761, 1-(4-fluorophenyl)-4-[4-methyl-4-(4-methylpiperazin-1-yl)piperidin-1-yl]-3-(propan-2-yl)-1H-pyrazolo[3,4-b]pyridine-6-carboxylic acid]	284%	1670 nM
CC(C)c1nn(-c2ccc(F)cc2)c2nc(C(=O)O)cc(N3CCC(OCCN4CCCCC4)CC3)c12 [compound 762, 1-(4-fluorophenyl)-4-{4-[2-(piperidin-1-yl)ethoxy]piperidin-1-yl}-3-(propan-2-yl)-1H-pyrazolo[3,4-b]pyridine-6-carboxylic acid]	442.6%	462 nM
O=C(O)c1cc(N2CCC(CN3CCOCC3)CC2)c2c(C3CCC3)nn(C3CCCCC3)c2n1 [compound 806, 3-cyclobutyl-1-cyclohexyl-4-{4-[(morpholin-4-yl)methyl]piperidin-1-yl}-1H-pyrazolo[3,4-b]pyridine-6-carboxylic acid]	435.5%	225 nM
